Reference: ChEMBL document CHEMBL3880383, “2-oxo-1-pyrrolidine derivative and its pharmaceutical uses” (2004)
pKi: −log10 of the molar value.

What was measured:
[1] = target: Synaptic vesicle glycoprotein 2A (Rattus norvegicus, UniProt Q02563); assay: Displacement of [3H]-2-[4-(3-azidophenyl)-2-oxo-1-pyrrolidinyl]butanamide from SV2A levetiracetam binding site in Sprague-Dawley rat cerebral cortex membranes after 120 mins by liquid scintillation counting method; set-up: species or system Membrane
Mus musculus = assay: Anticonvulsant activity in ip dosed sound susceptible DBA mouse model assessed as protection against audiogenic seizure-induced wild running, clonic and tonic convulsion administered 60 mins prior to induction of audiogenic seizures measured for 30 secs; type: functional
[2] = Mus musculus, DBA, ip, read-out: ED50

Sequence of Synaptic vesicle glycoprotein 2A (Q02563 whole entry): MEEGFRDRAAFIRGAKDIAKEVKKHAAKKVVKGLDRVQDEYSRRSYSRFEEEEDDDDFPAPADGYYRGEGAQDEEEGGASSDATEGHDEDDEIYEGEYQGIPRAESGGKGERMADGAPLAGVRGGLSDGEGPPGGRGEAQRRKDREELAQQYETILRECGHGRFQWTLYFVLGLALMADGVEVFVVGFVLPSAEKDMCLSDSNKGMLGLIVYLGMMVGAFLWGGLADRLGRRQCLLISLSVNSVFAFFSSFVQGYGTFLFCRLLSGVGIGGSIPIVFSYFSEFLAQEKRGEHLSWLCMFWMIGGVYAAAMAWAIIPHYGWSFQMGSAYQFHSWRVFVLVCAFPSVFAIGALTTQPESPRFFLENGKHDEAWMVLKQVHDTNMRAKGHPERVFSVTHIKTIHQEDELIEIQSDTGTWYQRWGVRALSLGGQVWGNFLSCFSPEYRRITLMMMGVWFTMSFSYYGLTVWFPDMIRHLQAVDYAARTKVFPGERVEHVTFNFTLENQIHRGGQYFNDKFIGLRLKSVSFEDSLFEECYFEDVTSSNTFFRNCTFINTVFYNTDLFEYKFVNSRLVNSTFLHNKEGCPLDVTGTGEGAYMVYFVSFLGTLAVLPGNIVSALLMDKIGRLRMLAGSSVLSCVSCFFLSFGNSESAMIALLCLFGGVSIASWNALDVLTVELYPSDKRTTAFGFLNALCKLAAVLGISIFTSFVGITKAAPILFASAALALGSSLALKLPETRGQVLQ

Row | SMILES | pKi [1] | ED50 (Mus musculus; [2]) | ED50 (Mus musculus)
1 | CC[C@@H](C(N)=O)N1C[C@H](C=C(F)F)CC1=O [SELETRACETAM] | ≥ 6.00 | 100 µmol/kg | 
2 | CCC(C(N)=O)N1CC(CC(C)C)CC1=O (stereo not drawn) | ≥ 6.00 | 100 µmol/kg | 
3 | CCC(C(N)=O)N1CC(C=C(C)C)CC1=O (stereo not drawn) | ≥ 6.00 | 100 µmol/kg | 
4 | CCCC(CN[C@@H](CC)C(N)=O)CC(=O)OCC (stereo partly drawn) |  | 100 µmol/kg | 
5 | CC[C@@H](C(N)=O)N1CC(CN=C=S)CC1=O (stereo partly drawn) | ≥ 6.00 |  | 
6 | CC[C@H](C(N)=O)N1CC(C=C(Cl)Cl)CC1=O (stereo partly drawn) | ≥ 6.00 | 100 µmol/kg | 
7 | CCCC1CC(=O)N(C(C)C(N)=O)C1 (stereo not drawn) | ≥ 6.00 |  | 
8 | CCC(C(N)=O)N1CC(CC(F)F)CC1=O (stereo not drawn) | ≥ 6.00 |  | 
9 | CC[C@@H](C(N)=O)N1CC(CCCc2ccccc2)CC1=O (stereo partly drawn) | ≥ 6.00 | 100 µmol/kg | 
10 | CC[C@@H](C(N)=O)N1C[C@H](CI)CC1=O | ≥ 6.00 | 100 µmol/kg | 
11 | CC[C@@H](C(N)=O)N1CC(CC(C)(C)C)CC1=O (stereo partly drawn) | ≥ 6.00 |  | 
12 | CC[C@@H](C(N)=O)N1CC(c2cccs2)CC1=O (single isomer, unassigned; diastereomer 1) |  | 100 µmol/kg | 
13 | CCC(C(N)=O)N1CC(CC2CC2)CC1=O (stereo not drawn) | ≥ 6.00 | 100 µmol/kg | 
14 | CC[C@@H](C(N)=O)N1CC(CI)CC1=O (stereo partly drawn) | ≥ 6.00 | 100 µmol/kg | 
15 | CCC(C(N)=O)N1CC(c2ccccc2Br)CC1=O (stereo not drawn) | ≥ 6.00 | 100 µmol/kg | 
16 | CCC(C(N)=O)N1CC(c2nccs2)CC1=O (stereo not drawn) | ≥ 6.00 | 100 µmol/kg | 
17 | CC[C@@H](C(N)=O)N1CC(c2cccs2)CC1=O (single isomer, unassigned; diastereomer 2) | ≥ 6.00 |  | 100 µmol/kg
18 | C=CC1CC(=O)N(C(CC)C(N)=O)C1 (stereo not drawn) | ≥ 6.00 | 100 µmol/kg | 
19 | CCC(C(N)=O)N1CC(/C=C\F)CC1=O (stereo not drawn) | ≥ 6.00 | 100 µmol/kg | 
20 | CC[C@@H](C(N)=O)N1CC(n2cccc2Br)CC1=O (stereo partly drawn) | ≥ 6.00 | 100 µmol/kg | 
21 | CCC(C(N)=O)N1CC(C=C(Br)Br)CC1=O (stereo not drawn) | ≥ 6.00 | 100 µmol/kg | 

Row | SMILES | pKi [1] | ED50 (Mus musculus; [2]) | ED50 (Mus musculus)
22 | CC[C@@H](C(N)=O)N1CC(CCC(F)(F)F)CC1=O (stereo partly drawn) | ≥ 6.00 | 100 µmol/kg | 
23 | CC[C@@H](C(N)=O)N1CC(COS(=O)(=O)c2ccc(C)cc2)CC1=O (stereo partly drawn) | ≥ 6.00 | 100 µmol/kg | 
24 | C[C@@H](C(N)=O)N1C[C@H](CI)CC1=O | ≥ 6.00 | 100 µmol/kg | 
25 | CC[C@@H](C(=O)NC)N1C[C@H](CI)CC1=O | ≥ 6.00 | 100 µmol/kg | 
26 | CC[C@@H](C(N)=O)N1CC(c2ccccc2)CC1=O (stereo partly drawn) | ≥ 6.00 | 100 µmol/kg | 
27 | CCCC(CN[C@@H](CC)C(N)=O)CC(=O)OC(C)C (stereo partly drawn) |  | 100 µmol/kg | 
28 | CCCC1CC(=O)N(C(CC)C(N)=O)C1 (stereo not drawn) | ≥ 6.00 | 100 µmol/kg | 
29 | CCCCCC1CC(=O)N(C(CC)C(N)=O)C1 (stereo not drawn) | ≥ 6.00 |  | 
30 | CC[C@@H](C(N)=O)N1CC(CSC)CC1=O (stereo partly drawn) | ≥ 6.00 | 100 µmol/kg | 
31 | CC[C@@H](C(N)=O)N1CC(CO[N+](=O)[O-])CC1=O (stereo partly drawn) | ≥ 6.00 | 100 µmol/kg | 
32 | CC[C@@H](C(N)=O)N1C[C@@H](C=C(Br)Br)CC1=O | ≥ 6.00 | 100 µmol/kg | 
33 | CCC[C@H]1CC(=O)N([C@@H](CC)C(N)=O)C1 | ≥ 6.00 | 100 µmol/kg | 
34 | CCC(C(N)=O)N1CC(C=C(F)F)CC1=O (stereo not drawn) | ≥ 6.00 | 100 µmol/kg | 
35 | CCC[C@@H](C(N)=O)N1C[C@H](CI)CC1=O | ≥ 6.00 | 100 µmol/kg | 
36 | CCCCOC(=O)CC(CCC)CN[C@@H](CC)C(N)=O (stereo partly drawn) |  | 100 µmol/kg | 
37 | CC[C@@H](C(N)=O)N1CC(CC(C)=O)CC1=O (stereo partly drawn) | ≥ 6.00 | 100 µmol/kg | 
38 | CCCC1CC(=O)N(C(CC2CC2)C(N)=O)C1 (stereo not drawn) | ≥ 6.00 |  | 
39 | CCC(C(N)=O)N1CC(c2cccnc2)CC1=O (stereo not drawn) | ≥ 6.00 | 100 µmol/kg | 
40 | CCC(C(N)=O)N1CC(c2ccc(Cl)cc2)CC1=O (stereo not drawn) | ≥ 6.00 |  | 
41 | CCCC1(C)CC(=O)N([C@@H](CC)C(N)=O)C1 (stereo partly drawn) | ≥ 6.00 | 100 µmol/kg | 
42 | CC[C@@H](C(N)=O)N1CC(CC(C)I)CC1=O (stereo partly drawn) | ≥ 6.00 | 100 µmol/kg | 

Row | SMILES | pKi [1] | ED50 (Mus musculus; [2]) | ED50 (Mus musculus)
43 | CCC(C(N)=O)N1CC(c2cccc(Cl)c2)CC1=O (stereo not drawn) | ≥ 6.00 | 100 µmol/kg | 
44 | CC[C@@H](C(N)=O)N1CC(Cn2cnnn2)CC1=O (stereo partly drawn) | ≥ 6.00 | 100 µmol/kg | 
45 | CC[C@@H](C(N)=O)N1CC(c2ccccc2OC)CC1=O (stereo partly drawn) | ≥ 6.00 |  | 
46 | CCCC(CN[C@@H](CC)C(N)=O)CC(=O)OCCC12CC3CC(CC(C3)C1)C2 (stereo partly drawn) |  | 100 µmol/kg | 
47 | CCC(C(N)=O)N1CC(c2cc(C(F)(F)F)cc(C(F)(F)F)c2)CC1=O (stereo not drawn) | ≥ 6.00 |  | 
48 | C=CCC(C(N)=O)N1CC(CCC)CC1=O (stereo not drawn) | ≥ 6.00 |  | 
49 | CC[C@@H](C(N)=O)N1CC(CCl)CC1=O (stereo partly drawn) | ≥ 6.00 | 100 µmol/kg | 
50 | CC[C@@H](C(N)=O)N1CC(c2cccc(N=[N+]=[N-])c2)CC1=O (stereo partly drawn) | ≥ 6.00 | 100 µmol/kg | 
51 | CC[C@@H](C(N)=O)N1CC(c2cc(Br)cc(Br)c2)CC1=O (stereo partly drawn) | ≥ 6.00 | 100 µmol/kg | 
52 | CCC(C(N)=O)N1CC(c2cccc(C)c2)CC1=O (stereo not drawn) | ≥ 6.00 | 100 µmol/kg | 
53 | CC[C@@H](C(N)=O)N1CC(c2ccsc2)CC1=O (stereo partly drawn) | ≥ 6.00 | 100 µmol/kg | 
54 | CC[C@@H](C(N)=O)N1CC(CBr)CC1=O (stereo partly drawn) | ≥ 6.00 | 100 µmol/kg | 
55 | CCC(C(N)=O)N1CC(CI)CC1=O (stereo not drawn) | ≥ 6.00 |  | 
56 | CCCC1CC(=O)N(C(Cc2cscn2)C(N)=O)C1 (stereo not drawn) | ≥ 6.00 |  | 
57 | CC[C@@H](C(N)=O)N1C[C@H](C=C(Br)Br)CC1=O | ≥ 6.00 | 100 µmol/kg | 
58 | CCC(C(N)=O)N1CC(c2ccccc2F)CC1=O (stereo not drawn) | ≥ 6.00 | 100 µmol/kg | 
59 | CCC(C(N)=O)N1CC(c2ccco2)CC1=O (stereo not drawn) | ≥ 6.00 | 100 µmol/kg | 
60 | CCC(C(N)=O)N1CC(c2ccc(Cl)cc2Cl)CC1=O (stereo not drawn) | ≥ 6.00 | 100 µmol/kg | 
61 | CC[C@@H](C(N)=O)N1CC(c2cccc(Br)c2)CC1=O (stereo partly drawn) | ≥ 6.00 | 100 µmol/kg | 
62 | CCCC1CC(=O)N(C(CCC)C(N)=O)C1 (stereo not drawn) | ≥ 6.00 |  | 
63 | CCC(C(N)=O)N1CC(CS(=O)(=O)c2ccccc2)CC1=O (stereo not drawn) | ≥ 6.00 |  | 

Row | SMILES | pKi [1] | ED50 (Mus musculus; [2]) | ED50 (Mus musculus)
64 | CCC(C(N)=O)N1C[C@H](CC(C)(F)F)CC1=O (stereo partly drawn) | ≥ 6.00 | 100 µmol/kg | 
65 | C#CC1CC(=O)N(C(CC)C(N)=O)C1 (stereo not drawn) | ≥ 6.00 | 100 µmol/kg | 
66 | C=CCC1CC(=O)N([C@@H](CC)C(N)=O)C1 (stereo partly drawn) | ≥ 6.00 | 100 µmol/kg | 
67 | CCC(C(N)=O)N1CC(C#CBr)CC1=O (stereo not drawn) | ≥ 6.00 | 100 µmol/kg | 
68 | C=C[C@@H]1CC(=O)N([C@@H](CC)C(N)=O)C1 | ≥ 6.00 | 100 µmol/kg | 
69 | CCCCC1CC(=O)N(C(CC)C(N)=O)C1 (stereo not drawn) | ≥ 6.00 | 100 µmol/kg | 
70 | CC[C@@H](C(N)=O)N1CC(c2ccc(-c3ccccc3)cc2)CC1=O (stereo partly drawn) | ≥ 6.00 |  | 
71 | CC[C@@H](C(N)=O)N1CC(c2cccc(OC)c2)CC1=O (stereo partly drawn) | ≥ 6.00 |  | 
72 | CC[C@@H](C(N)=O)N1CC(n2cccc2)CC1=O (stereo partly drawn) | ≥ 6.00 | 100 µmol/kg | 
73 | CCC[C@@H]1CC(=O)N([C@@H](CC)C(N)=O)C1 [BRIVARACETAM] | ≥ 6.00 | 100 µmol/kg | 
74 | CC[C@@H](C(N)=O)N1C[C@H](CN=[N+]=[N-])CC1=O | ≥ 6.00 | 100 µmol/kg | 
75 | CC[C@@H](C(N)=O)N1CC(C#CBr)CC1=O (stereo partly drawn) | ≥ 6.00 | 100 µmol/kg | 
76 | CC[C@@H](C(N)=O)N1C[C@@H](C=C(F)F)CC1=O | ≥ 6.00 | 100 µmol/kg | 
77 | CC[C@@H](C(N)=O)N1CC(CC2CC2)CC1=O (stereo partly drawn) | ≥ 6.00 | 100 µmol/kg | 
78 | CCC(C(N)=O)N1CC(c2ccccc2C(F)(F)F)CC1=O (stereo not drawn) | ≥ 6.00 |  | 
79 | CC[C@@H](C(N)=O)N1CC(c2ccc(N=[N+]=[N-])cc2)CC1=O (stereo partly drawn) | ≥ 6.00 | 100 µmol/kg | 
80 | CC[C@@H](C(N)=O)N1CC(CCc2ccccc2)CC1=O (stereo partly drawn) | ≥ 6.00 |  | 
81 | CCC(C(N)=O)N1CC(c2ccc(Cl)c(Cl)c2)CC1=O (stereo not drawn) | ≥ 6.00 | 100 µmol/kg | 
82 | C=C[C@H]1CC(=O)N([C@@H](CC)C(N)=O)C1 | ≥ 6.00 | 100 µmol/kg | 
83 | CCC1CC(=O)N([C@@H](CC)C(N)=O)C1 (stereo partly drawn) | ≥ 6.00 | 100 µmol/kg | 
